Reference: patent US6893821B2, “Agents that modulate DNA-PK activity and methods of use thereof” (The Regents of the University of California, priority 2000, dated 2005)
Entries after “also recorded” stand apart in the source; their conditions may differ. Blank lines part the entries; values can stand above or below the molecule they belong to.

Key:
DNA-PK = target: T1, DNA-PK (Homo sapiens, UniProt P12956+P13010+P78527); test: In vitro DNA-PK phosphorylation assay (affinity-purified DNA-PK, GST-p53 (1-70) substrate); type: biochemical; conditions: 30° C., 30 minutes; ps-ss ODNs 0-1, po-ISS-ODN 20-100, po-ds-ISS-ODN 0-10, genomic DNAs 1-5 ng/reaction
T1 construct: purchased Promega
Method: The in vitro DNA-PK phosphorylation assay was performed according to Hammarsten et al. (2000), supra, with modification. Briefly, affinity-purified DNA-PK (Promega, Mo.) was incubated with various DNA preparations (described below), 0.5 μg of GST-p53 (1-70) and 3.3 μCi of γ-^32p-ATP in a 20 μl reaction buffer (10 mM Tris-Cl, 5 mM MgCl2, 0.3 mM EDTA and 10 μM ATP) at 30° C. for 30 minutes. The reaction was stopped by addition of 4× loading buffer. The samples were boiled, loaded on 9% SDS-PAGE, transferred onto a PVDF membrane and visualized by autoradiography.
The ODNs (ps-ss) used include an ISS-ODN with an active CpG motif (AACGTT), a methylated ISS-ODN at the ^5C of the CpG dinucleotide (AA*CGTT) and various control ODNs. These ODNs were incubated at concentrations of 0, 0.1, 0.3, or 1 ng/reaction. The po-ISS-ODN was incubated at concentration of 20, 50 or 100 ng/reaction. The po-ds-ISS-ODN was incubated at concentration of 0, 0.5, 1, 2, 5 or 10 ng/reaction. The bacterial or calf thymus DNAs were each incubated at concentration of 1, 2 or 5 ng/reaction. Electrophoretic gel mobility shift assay (EMSA) was performed as previously described. Chu et al. (1999) Immunity 11:721-731; and Li et al., 1999, supra). In vitro IKK kinase assays were performed using purified IKK derived from Sf9 insect cell lysates as was previously described. Zandi et al. (1998) Science 281:1360-1363.

[1] = target: T2, Ku antigen (Ku70/Ku80 heterodimer) (Mus musculus, UniProt P23475+P27641); test: EMSA inhibition study: cold ODN vs [32P]-labeled ds-ISS-ODN binding to Ku (affinity column fraction 20); conditions: for displacement of the interaction of [32P]-labeled ds-ISS-ODN with Ku: unlabeled ODN 0.1, 0.2 and 0.4 μg, 10 μg of fraction 20
T2 construct: from tissue; host or cells: mouse liver (BALB/c)
T2 sequence (P23475 2-608 limits assumed): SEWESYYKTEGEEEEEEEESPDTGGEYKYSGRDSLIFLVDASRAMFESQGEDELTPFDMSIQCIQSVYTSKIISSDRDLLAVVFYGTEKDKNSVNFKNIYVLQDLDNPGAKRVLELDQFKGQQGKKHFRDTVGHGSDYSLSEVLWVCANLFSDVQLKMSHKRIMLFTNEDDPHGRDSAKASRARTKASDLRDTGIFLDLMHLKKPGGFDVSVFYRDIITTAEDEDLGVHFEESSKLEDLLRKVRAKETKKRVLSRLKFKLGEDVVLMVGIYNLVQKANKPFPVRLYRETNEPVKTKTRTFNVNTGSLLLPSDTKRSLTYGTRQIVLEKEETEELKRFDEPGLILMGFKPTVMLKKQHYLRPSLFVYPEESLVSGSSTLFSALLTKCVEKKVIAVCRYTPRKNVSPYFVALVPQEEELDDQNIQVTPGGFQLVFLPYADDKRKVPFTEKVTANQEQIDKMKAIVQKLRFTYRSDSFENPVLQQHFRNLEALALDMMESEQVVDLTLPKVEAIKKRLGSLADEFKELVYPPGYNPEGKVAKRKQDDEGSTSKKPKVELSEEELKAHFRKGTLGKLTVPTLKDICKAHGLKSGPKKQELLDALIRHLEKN
T2 sequence (P27641 whole entry): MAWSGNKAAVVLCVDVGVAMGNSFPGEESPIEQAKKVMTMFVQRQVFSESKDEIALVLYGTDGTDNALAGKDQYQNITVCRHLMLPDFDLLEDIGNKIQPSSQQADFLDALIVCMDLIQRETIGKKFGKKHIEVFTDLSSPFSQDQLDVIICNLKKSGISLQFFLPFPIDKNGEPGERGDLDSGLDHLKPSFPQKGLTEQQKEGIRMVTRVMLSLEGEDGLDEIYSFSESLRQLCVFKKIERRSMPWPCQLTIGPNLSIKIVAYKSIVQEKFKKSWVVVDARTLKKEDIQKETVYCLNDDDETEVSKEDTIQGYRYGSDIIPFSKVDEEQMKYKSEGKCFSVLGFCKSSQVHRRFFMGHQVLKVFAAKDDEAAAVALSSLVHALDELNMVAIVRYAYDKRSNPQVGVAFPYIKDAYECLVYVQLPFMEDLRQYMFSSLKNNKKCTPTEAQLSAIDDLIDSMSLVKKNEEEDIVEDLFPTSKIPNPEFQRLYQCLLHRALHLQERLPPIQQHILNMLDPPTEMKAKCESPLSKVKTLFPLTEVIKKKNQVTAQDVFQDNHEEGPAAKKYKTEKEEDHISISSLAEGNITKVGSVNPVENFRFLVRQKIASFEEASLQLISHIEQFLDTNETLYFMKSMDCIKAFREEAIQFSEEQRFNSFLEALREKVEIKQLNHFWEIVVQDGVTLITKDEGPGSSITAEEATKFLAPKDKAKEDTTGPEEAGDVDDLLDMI
Method: Purification of the ISS binding protein was accomplished by sequential ion exchange, heparin and ISS-ODN affinity chromatography, as follows. Due to the relative small tissue weight per spleen, liver lysate was used after confirming its reactivity to in vivo ISS injection, as described above. Crude liver extracts from 220 mice (BALB/c, Jackson Lab., Bar Harbour, Me.) or 15 New Zealand White rabbits (Simunek, Vista, Calif.) were prepared in homogenization buffer (20 mM HEPES, pH 7.6, 250 mM KCl, 0.1 mM EDTA, 0.5 mM EGTA, 20% glycerol) with 250 mM KCl and protease and phosphatase inhibitors and then centrifuged at 100,000×g for 1.5 hours at 4° C. The supernatant (400 ml) was filtered and loaded onto a Porous 20 QE column (17 ml, Pharmacia). Two μl (10 μg) of each fraction were used in a gel retardation assay to identify the location of proteins containing DNA binding activity using [^32P]-labeled ds-ISS-ODN as a probe. Fractions containing ISS-ODN binding activity were pooled (450 ml), buffered exchanged to low salt (50 mM KCl) and loaded onto a Heparin column (2 ml). The active fractions were subsequently loaded onto a 2 ml ds-ISS-ODN affinity column [CNBr-activated Sepharose 4B (Pharmacia) coupled to 320 μg of ds-ISS-ODNs with the sequence 5′-[…]-3′; SEQ ID NO: 21]. The column was washed with 8 ml of homogenization buffer containing 50 mM KCl and the bound proteins were eluted with a 20 ml linear gradient of 50 mM to 1.55 M KCl. One-ml fractions were collected and 2 μl of each were used to test for DNA binding activity. The active fractions were concentrated, separated by SDS-PAGE and stained with Coomassie Blue. The appearance of two bands with estimated molecular weights of 70 KDa and 80 KDa correlated with the DNA binding activity. Sequence analysis (Harvard Microsequencing Facility) of peptides derived from the two bands identified Ku70 and Ku80, respectively.
Mouse liver extracts were purified through anion (QE), heparin and ISS-based affinity chromatography, as described above. Two μl of each fraction (10 μg) were incubated with [^32 P]-labeled ds-ISS-ODN at 4° C. for 30 minutes. The samples were separated on a 5% acrylamide gel and the protein-DNA complexes were detected by autoradiography. […] The active fractions were separated by sodium dodecyl sulfate-polyacrylamide gel electrophoresis (SDS-PAGE), stained with Coomassie blue and micro-sequenced.
To verify the binding specificity of the Ku protein to ISS-ODN, inhibition studies were performed using cold ss or ds ISS or mutated (M, i.e., control) ODNs. Ten μg of fraction 20 from the affinity column were incubated with [^32P]-labeled ISS-ODN in the presence of unlabeled (0.1, 0.2 and 0.4 μg, respectively) ss-ISS-ODN (lanes 3-5), ds-ISS-ODN (lanes 7-9), ss-M-ODN (lanes 11-13) or ds-M-ODN (lanes 15-17).

IκB kinase (IKK) complex = test: IKK kinase assay on IKK complex immunoprecipitated from treated BMDM (IκBα N-terminus substrate); type: cell-based, mice
Method: Kinase assays and immunoblotting were performed according to Li et al. ((1999) J. Exp. Med. 189:1839-1845). Briefly, BMDM were treated with ISS-ODN (5 μg/ml), M-ODN (5 μg/ml) on ps and po backbones as indicated, LPS-free bacterial DNA or methylated bacterial DNA (5 μg/ml), LPS-free calf thymus DNA (5 μg/ml), LPS (10 μg/ml) or TNFα (10 ng/ml) for the indicated time periods. Cell lysates were prepared and normalized by immunoblotting (IB) with anti-IKKα polyclonal antibodies (Santa Cruz, Santa Cruz Biotech Inc., Calif.), anti-IKKβ polyclonal antbodies (Santa Cruz) or anti-DNA-PKcs monoclonal antibodies (NeoMarker, Calif.). IκB kinase (IKK) complex or DNA-PK complex from 100 μg of the lysates were immunoprecipitated by anti-IKKα or by anti-DNA-PKcs antibodies. The kinase activities (KA) were determined by a kinase assay using the N-terminus of IκBα (for IKK) or the N-terminus of p53 (for DNA-PK) as a substrate as previously described. Wang et al. (1992) Proc. Natl. Acad. Sci. USA 89:4231-4235; Li et al.(1999), supra; and Hammarsten et al. (2000) J. Biol. Chem. 275:1541-1545.

[2] = system: IL-6, IL-12 message in liver; test: RT-PCR for IL-6 and IL-12 message in livers of mice injected i.v. with ODN; type: in vivo; conditions: mice i.v. 200 μl (1 μg/μl in PBS) of ss or ds ODN; 2.5 hours
[3] = system: bone marrow derived macrophages (BMDM); test: IL-6 and IL-12 levels in BMDM culture supernatants by ELISA; type: cell-based, mice; conditions: BMDM
Method: Ku70^−/− and Ku80^−/− mice and their wild-type (wt) control on the 129 genetic background were generated by Dr. G. Li and bred at Memorial Sloan-Kettering Cancer Center (MSKCC), New York, N.Y. BMDM from wt, Ku70^−/− and Ku80^−/− mice (MSKCC) were prepared as was previously published (Martin-Orozco et al. (1999) Int. Immunol. 11:1111), and maintained in DMEM with 10% FBS, antibiotics and 20% L-cell medium and cultured for about 10 days to allow them to mature. BMDM were seeded (2.5×10^5/well in triplicate) on 96-well plates and treated with LPS (10 μg/ml), ISS-ODN (5 μg/ml) or M-ODN (5 μg/ml).
BMDM (2.5×10^5/well) from wt, or Ku70^−/− and Ku80^−/− mice were treated with LPS (1 μg/ml), ISS-ODN (5 μg/ml) or M-ODN (5 μg/ml) for 24 hours. IL-6 (A) or IL-12 (B) levels in the supernatants were determined by ELISA. Results are means±S.D, of 5 separate experiments for wt and Ku70^−/− and 3 separate experiments for Ku80^−/− mice. (C) BMDM were incubated with LPS (10 μg/ml) or ISS-ODN (5 μg/ml) for 6.5 hours. Total RNA was isolated and analyzed for the presence of IL-6, IL-12 and GAPDH messages by a Northern blot assay, as described in Example 1. Results are means±S.D. of 5 separate experiments for wt and Ku70^−/− and 3 separate experiments for Ku80^−/− mice.
DNA-PKcs^−/− and their wt control mice on the 129 genetic background were generated by Dr. G. C. Li and bred at Memorial Sloan-Kettering Cancer Center, New York, N.Y. IKKβ^−/− Tnfr1^−/− mice were generated by Drs. Z-W Li and Karin M. ATM^−/− mice on the C57BL/6 background were generated and bred by Dr. Y. Xu (UCSD) as was previously described (Xu et al.(1996) Genes Dev. 10:2411-2422) while their wild-type (wt) control were purchased from Jackson Laboratories (Bar Harbor, Me.). BMDMs from wt, DNA-PKcs^−/− mice, IKKβ^−/− Tnfr1^−/− and ATM^−/− mice were prepared as was previously published (Martin-Orozco et al. (1999) Intl. Immunol. 11:1111-1118), maintained in DMEM with 10% FBS, antibiotics and 20% L-cell medium and cultured for 7-10 days to allow them to mature. Prior to use BMDM were seeded (2.5×10^5/well in triplicate) in 96-well plates and than treated with LPS (1 μg/ml), ISS-ODN (5 μg/ml) or M-ODN (5 μg/ml), po-ISS-ODN (10 μg/ml) or po-ds-ISS-ODN (10 μg/ml), LPS-free, ultra pure bacterial DNA (E. coli, Sigma) (15 μg/ml) or methylated bacterial DNA or LPS-free, ultra pure calf thymus DNA (Sigma) (15 μg/ml). Methylation of bacterial DNA was performed by SssI methylase (Biolab, Boston, Mass.) (15 μg/ml) following manufacturer's instruction. Where indicated the PI3K inhibitor wortmannin (Wm), at various concentrations, was added to ISS-ODN or LPS stimulated BMDMs. After 24 hours in culture, the supernatants were collected and assayed for IL-6 and IL-12 levels by ELISA kits (PharMingen, San Diego, Calif.).

Molecule: 5′-TGACTGTGAA*CGTTAGAGATGA-3′ (DNA TGACTGTGAACGTTAGAGATGA; 5-methylcytosine, chemistry not fully specified) [Methylated ISS-ODN, *C denotes 5-methyl C, reference compound]
DNA-PK activity in vitro (phosphorylation of the N-terminal portion of p53) (DNA-PK): weaker DNA-PK activators than their unmethylated counterparts

Molecule: 5′-TGACTGTGAAGGTTAGAGATGA-3′ [M-ODN, reference compound]
IKK activation (IκB kinase (IKK) complex; wt BMDM): little increase in IKK activity
IKK activation, concentration series (IκB kinase (IKK) complex; wt BMDM (FIG. 5B)): little IKK activation
interaction of Ku with ODN [1]: lack of interaction
IL-6 and IL-12 message in liver (RT-PCR) [2]: did not display any immune stimulation; also recorded: lack of induction

Molecule: O=c1cc(N2CCOCC2)oc2c(-c3ccccc3)cccc12 [Ly, Ly294002, reference compound]
inhibition of LPS-induced secretion of IL-6 and IL-12 [3]: did not inhibit

Molecule: COC[C@H]1OC(=O)c2coc3c2[C@@]1(C)C1=C(C3=O)[C@@H]2CCC(=O)[C@@]2(C)C[C@H]1OC(C)=O [Wm, wortmannin, reference compound]
effect on IKK activation by TNFα (IκB kinase (IKK) complex; Wm at 1000 nM): no effect
inhibition of LPS-induced secretion of IL-6 and IL-12 [3]: did not inhibit

Molecule: TNFα [reference compound]
IKK activation (IκB kinase (IKK) complex; DNA-PKcs-/- BMDM as compared to wt): fully responsive

Continued, values first:

displacement of the interaction of [32P]-labeled ds-ISS-ODN with Ku [1]: did not have any significant effect
Molecule: 5′-TGACTGTGAACCTTAGAGATGA-3′ [ds-M-ODN, reference compound]

displacement of the interaction of [32P]-labeled ds-ISS-ODN with Ku [1]: displaced the interaction
Molecule: 5′-TGACTGTGAACGTTCGAGATGA-3′ [ds-ISS-ODN]
